Patent US20230085307A1, “PYRIDAZINONE COMPOUND AND HERBICIDE” (NISSAN CHEMICAL CORPORATION, priority 2019, published 2023)

Legend:
wild oat [1] = assay: Test Example 4: herbicidal effect by soil treatment (Table 19, symbol I); format: in vivo, wild oat (Avena fatua); settings: amount of applied herbicide 320 g/ha
How it was run: (§1)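 Scoring uses the grading scale of an earlier test, three weeks post-application. Treatment consists of spraying a diluted emulsion formulation across the surface of sterilized diluvial soil in which seeds are buried near 1.5 cm deep; boxes are kept in a greenhouse between 25° C. and 30° C.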

blackgrass [2] = assay: Test Example 5: herbicidal effect by foliage application, plastic box (Table 20, symbol J); format: in vivo, blackgrass (Alopecurus myosuroides); settings: foliage application, AAH 320 g/ha, evaluated three weeks after application
How it was run: (§2)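 Post-emergence foliar test in sterilized diluvial soil. Compound applied as water-diluted emulsion at a predetermined rate to 14-day-old plants; evaluation at three weeks.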

Italian ryegrass [3] = assay: Test Example 4: herbicidal effect by soil treatment (Table 19, symbol K); format: in vivo, Italian ryegrass (Lolium multiflorum); settings: amount of applied herbicide 320 g/ha
How it was run: as §1

Chinese sprangletop = assay: Test Example 3: herbicidal effect by foliage application, Wagner pot (Table 18, symbol D); format: in vivo, chinese sprangletop (Leptochloa chinensis); settings: amount of applied herbicide 320 g/ha
How it was run: (§3)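 Plants were sown in alluvial soil held under 0.1–0.5 cm standing water and grown 14 days in a greenhouse at 25–30 °C. An emulsifiable formulation, water-diluted to the set dose, was then sprayed onto the foliage, and effects were scored three weeks later using previously defined criteria.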

lambsquarters [4] = assay: Test Example 4: herbicidal effect by soil treatment (Table 19, symbol O); format: in vivo, lambsquarters (Chenopodium album); settings: amount of applied herbicide 320 g/ha
How it was run: as §1

blackgrass [5] = assay: Test Example 4: herbicidal effect by soil treatment (Table 19, symbol J); format: in vivo, blackgrass (Alopecurus myosuroides); settings: amount of applied herbicide 320 g/ha
How it was run: as §1

velvetleaf [6] = assay: Test Example 4: herbicidal effect by soil treatment (Table 19, symbol M); format: in vivo, velvetleaf (Abutilon theophrasti); settings: amount of applied herbicide 320 g/ha
How it was run: as §1

redroot pigweed [7] = assay: Test Example 4: herbicidal effect by soil treatment (Table 19, symbol N); format: in vivo, redroot pigweed (Amaranthus retroflexus); settings: amount of applied herbicide 320 g/ha
How it was run: as §1

late watergrass = assay: Test Example 1: herbicidal activity, application before weed generation under submerged conditions (Table 16, symbol A); format: in vivo, late watergrass (Echinochloa oryzicola); settings: 320 g/ha applied herbicide
How it was run: (§4)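 Emulsion formulation, water-diluted to set dose, was put onto the flooded surface (4 cm depth, alluvial soil) the same day weeds were sown and 2.5-leaf rice transplanted. After 3 weeks at 25-30 °C under glass, each species was rated 0 (≤5% kill) to 5 (≥90% kill).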

barnyard grass [8] = assay: Test Example 4: herbicidal effect by soil treatment (Table 19, symbol H); format: in vivo, barnyard grass (Echinochloa crus-galli); settings: amount of applied herbicide 320 g/ha
How it was run: as §1

Japanese bulrush = assay: Test Example 1: herbicidal activity, application before weed generation under submerged conditions (Table 16, symbol B); format: in vivo, Japanese bulrush (Schoenoplectus juncoides); settings: 320 g/ha applied herbicide
How it was run: as §4

green foxtail [9] = assay: Test Example 5: herbicidal effect by foliage application, plastic box (Table 20, symbol G); format: in vivo, green foxtail (Setaria viridis); settings: foliage application, AAH 320 g/ha, evaluated three weeks after application
How it was run: as §2

chickweed [10] = assay: Test Example 5: herbicidal effect by foliage application, plastic box (Table 20, symbol P); format: in vivo, common chickweed (Stellaria media); settings: foliage application, AAH 320 g/ha, evaluated three weeks after application
How it was run: as §2

persian speedwell [11] = assay: Test Example 5: herbicidal effect by foliage application, plastic box (Table 20, symbol R); format: in vivo, Persian speedwell (Veronica persica); settings: foliage application, AAH 320 g/ha, evaluated three weeks after application
How it was run: as §2

windgrass = assay: Test Example 4: herbicidal effect by soil treatment (Table 19, symbol L); format: in vivo, windgrass (Apera spica-venti); settings: amount of applied herbicide 320 g/ha
How it was run: as §1

southern crabgrass [12] = assay: Test Example 5: herbicidal effect by foliage application, plastic box (Table 20, symbol F); format: in vivo, southern crabgrass (Digitaria ciliaris); settings: foliage application, AAH 320 g/ha, evaluated three weeks after application
How it was run: as §2

redroot pigweed [13] = assay: Test Example 5: herbicidal effect by foliage application, plastic box (Table 20, symbol N); format: in vivo, redroot pigweed (Amaranthus retroflexus); settings: foliage application, AAH 320 g/ha, evaluated three weeks after application
How it was run: as §2

Italian ryegrass [14] = assay: Test Example 5: herbicidal effect by foliage application, plastic box (Table 20, symbol K); format: in vivo, Italian ryegrass (Lolium multiflorum); settings: foliage application, AAH 320 g/ha, evaluated three weeks after application
How it was run: as §2

velvetleaf [15] = assay: Test Example 5: herbicidal effect by foliage application, plastic box (Table 20, symbol M); format: in vivo, velvetleaf (Abutilon theophrasti); settings: foliage application, AAH 320 g/ha, evaluated three weeks after application
How it was run: as §2

lambsquarters [16] = assay: Test Example 5: herbicidal effect by foliage application, plastic box (Table 20, symbol O); format: in vivo, lambsquarters (Chenopodium album); settings: foliage application, AAH 320 g/ha, evaluated three weeks after application
How it was run: as §2

southern crabgrass [17] = assay: Test Example 4: herbicidal effect by soil treatment (Table 19, symbol F); format: in vivo, southern crabgrass (Digitaria ciliaris); settings: amount of applied herbicide 320 g/ha
How it was run: as §1

barnyard grass [18] = assay: Test Example 5: herbicidal effect by foliage application, plastic box (Table 20, symbol H); format: in vivo, barnyard grass (Echinochloa crus-galli); settings: foliage application, AAH 320 g/ha, evaluated three weeks after application
How it was run: as §2

green foxtail [19] = assay: Test Example 4: herbicidal effect by soil treatment (Table 19, symbol G); format: in vivo, green foxtail (Setaria viridis); settings: amount of applied herbicide 320 g/ha
How it was run: as §1

barnyard grass [20] = assay: Test Example 3: herbicidal effect by foliage application, Wagner pot (Table 18, symbol H); format: in vivo, barnyard grass (Echinochloa crus-galli); settings: amount of applied herbicide 320 g/ha
How it was run: as §3

wild oat [21] = assay: Test Example 5: herbicidal effect by foliage application, plastic box (Table 20, symbol I); format: in vivo, wild oat (Avena fatua); settings: foliage application, AAH 320 g/ha, evaluated three weeks after application
How it was run: as §2

chickweed [22] = assay: Test Example 4: herbicidal effect by soil treatment (Table 19, symbol P); format: in vivo, common chickweed (Stellaria media); settings: amount of applied herbicide 320 g/ha
How it was run: as §1

oval-leafed pondweed = assay: Test Example 1: herbicidal activity, application before weed generation under submerged conditions (Table 16, symbol C); format: in vivo, oval-leafed pondweed (Monochoria vaginalis); settings: 320 g/ha applied herbicide
How it was run: as §4

rice flat sedge = assay: Test Example 3: herbicidal effect by foliage application, Wagner pot (Table 18, symbol E); format: in vivo, rice flat sedge (Cyperus iria); settings: amount of applied herbicide 320 g/ha
How it was run: as §3

persian speedwell [23] = assay: Test Example 4: herbicidal effect by soil treatment (Table 19, symbol R); format: in vivo, Persian speedwell (Veronica persica); settings: amount of applied herbicide 320 g/ha
How it was run: as §1

## Cc1nn(C)c(=O)c(-c2c(-c3ccc(OC(F)F)cc3)sc3ccc(F)cc23)c1OS(=O)(=O)N(C)C [2-310]
Wild oat [1]
  herbicidal effect on I: wild oat: 0 (Herbicidal rate of 5% or less (almost no effect))
Blackgrass [2]
  J: blackgrass, herbicidal effect (criteria 0-5): 0 (Herbicidal rate of 5% or less (almost no effect))
Italian ryegrass [3]
  herbicidal effect on K: Italian ryegrass: 0 (Herbicidal rate of 5% or less (almost no effect))
Chinese sprangletop
  herbicidal effect on D: Chinese sprangletop: 4 (Herbicidal rate of 70% or more and less than 90%)
Lambsquarters [4]
  herbicidal effect on O: lambsquarters: 0 (Herbicidal rate of 5% or less (almost no effect))
Blackgrass [5]
  herbicidal effect on J: blackgrass: 0 (Herbicidal rate of 5% or less (almost no effect))
Velvetleaf [6]
  herbicidal effect on M: velvetleaf: 0 (Herbicidal rate of 5% or less (almost no effect))
Redroot pigweed [7]
  herbicidal effect on N: redroot pigweed: 0 (Herbicidal rate of 5% or less (almost no effect))
Late watergrass
  Herbicidal effect on A: late watergrass (grade 0-5): 0 (Herbicidal rate of 5% or less (almost no effect))
Barnyard grass [8]
  herbicidal effect on H: barnyard grass: 0 (Herbicidal rate of 5% or less (almost no effect))
Japanese bulrush
  Herbicidal effect on B: Japanese bulrush (grade 0-5): 2 (Herbicidal rate of 20% or more and less than 40%)
Green foxtail [9]
  G: green foxtail, herbicidal effect (criteria 0-5): 5 (Herbicidal rate of 90% or more (almost completely withered))
Chickweed [10]
  P: chickweed, herbicidal effect (criteria 0-5): 5 (Herbicidal rate of 90% or more (almost completely withered))
Persian speedwell [11]
  R: persian speedwell, herbicidal effect (criteria 0-5): 5 (Herbicidal rate of 90% or more (almost completely withered))
windgrass
  herbicidal effect on L: windgrass: 0 (Herbicidal rate of 5% or less (almost no effect))
Southern crabgrass [12]
  F: southern crabgrass, herbicidal effect (criteria 0-5): 0 (Herbicidal rate of 5% or less (almost no effect))
Redroot pigweed [13]
  N: redroot pigweed, herbicidal effect (criteria 0-5): 5 (Herbicidal rate of 90% or more (almost completely withered))
Italian ryegrass [14]
  K: Italian ryegrass, herbicidal effect (criteria 0-5): 0 (Herbicidal rate of 5% or less (almost no effect))
Velvetleaf [15]
  M: velvetleaf, herbicidal effect (criteria 0-5): 5 (Herbicidal rate of 90% or more (almost completely withered))
Lambsquarters [16]
  O: lambsquarters, herbicidal effect (criteria 0-5): 5 (Herbicidal rate of 90% or more (almost completely withered))
Southern crabgrass [17]
  herbicidal effect on F: southern crabgrass: 0 (Herbicidal rate of 5% or less (almost no effect))
Barnyard grass [18]
  H: barnyard grass, herbicidal effect (criteria 0-5): 5 (Herbicidal rate of 90% or more (almost completely withered))
Green foxtail [19]
  herbicidal effect on G: green foxtail: 0 (Herbicidal rate of 5% or less (almost no effect))
Barnyard grass [20]
  herbicidal effect on H: barnyard grass: 5 (Herbicidal rate of 90% or more (almost completely withered))
Wild oat [21]
  I: wild oat, herbicidal effect (criteria 0-5): 0 (Herbicidal rate of 5% or less (almost no effect))
Chickweed [22]
  herbicidal effect on P: chickweed: 3 (Herbicidal rate of 40% or more and less than 70%)
oval-leafed pondweed
  Herbicidal effect on C: oval-leafed pondweed (grade 0-5): 0 (Herbicidal rate of 5% or less (almost no effect))
Rice flat sedge
  herbicidal effect on E: rice flat sedge: 3 (Herbicidal rate of 40% or more and less than 70%)
Persian speedwell [23]
  herbicidal effect on R: persian speedwell: 4 (Herbicidal rate of 70% or more and less than 90%)
